Laboratory results taken from PMC12058896, “Potent antimicrobial activity of hydrogel loaded with the antimicrobial peptide, D-Bac8c^2,5 Leu, against monospecies and polymicrobial biofilms of Staphylococcus aureus and Pseudomonas aeruginosa” (Frontiers in Microbiology, 2025).
≈ marks a conversion by molar mass, not a printed value. Non-standard residues stand in square brackets, D forms with d. Residues, ends and D or L forms follow the SMILES beside them.

Key:
BH1CC = experiment: microbe, parasite or virus in culture; format: cell-based, Staphylococcus aureus; settings: 18 h
Procedure: (§1) Strains used in the study were isolates of methicillin-resistant Staphylococcus aureus (MRSA); USA300 LAC, BH1CC ([O’Neill et al., 2007]), methicillin-sensitive S. aureus (MSSA); SH1000 ([Horsburgh et al., 2002]) and BH48 ([O’Neill et al., 2007]); and Pseudomonas aeruginosa PAO1 (ATCC […]). Clinical isolates were obtained from a previous collection of isolates of infected wounds. Bacteria were grown aerobically at 37°C with shaking at 200 rpm in Brain Heart Infusion (BHI, Oxoid, Ireland). Selective media, Mannitol Salt Agar (SLS, Ireland) and MacConkey agar (SLS, Ireland), for re-isolation of bacterial strains from mixed species biofilms were used. Bolton Broth (Fannin, Ireland) supplemented with 50% bovine heparin plasma (TebuBio, UK), and 5% laked horse blood (Sigma-Aldrich, Ireland) was used to mimic in vivo conditions for static antibiofilm testing. For dynamic biofilm growth Simulated Wound Fluid (SWF) prepared as described previously with slight modification, 3% v/v fetal bovine serum in maximum recovery diluent (Merck, Ireland) was used ([Barbour et al., 2016]).
(§2) Minimum inhibitory concentration (MIC) was determined aerobically using the broth microdilution assay as recommended by the Clinical and Laboratory Standards Institute (CLSI) ([CLSI, 2018]). Briefly, 2-fold serial dilutions of the antimicrobial peptides of interest and conventional antibiotics were prepared in Mueller-Hinton broth (MHB) (Merck, Ireland) in a 96-well round bottom polypropylene plate (ThermoFisher, Ireland). Diluted bacterial suspensions in sterile PBS (Sigma, Ireland) were added to each well resulting in a final cell density of approximately 10^5 colony forming units (CFU)/mL. Microplates were incubated statically for 18 h at 37°C. In each assay, inoculated medium without antimicrobials and uninoculated medium served as growth and sterility controls, respectively. Conventional antibiotics, gentamicin (Merck, Ireland) and mupirocin (SLS, UK), were tested as comparator antimicrobials. The MIC value was defined as the lowest antimicrobial concentration showing no visible growth relative to positive (no antimicrobial agent) and negative controls (BHI alone). Experiments were conducted in triplicate, and independent replicates were performed three times to yield n = 3.

BH48 = experiment: microbe, parasite or virus in culture; format: cell-based, Staphylococcus aureus; settings: 18 h
Procedure: as §1, §2

SH1000 = experiment: microbe, parasite or virus in culture; format: cell-based, Staphylococcus aureus; settings: SH1000, 18 h
Procedure: as §1, §2

USA300 = experiment: microbe, parasite or virus in culture; format: cell-based, Staphylococcus aureus; settings: USA300, 18 h
Procedure: as §1, §2

[1] = system: monospecies and polymicrobial biofilms of Staphylococcus aureus and Pseudomonas aeruginosa; experiment: Static biofilm assays; format: cell-based
Procedure: Biofilms were formed under static conditions using flat 96-well polystyrene plates as described previously with few modifications ([[…] al., 2018]). Briefly, overnight cultures in BHI were washed and diluted 1:200 in fresh Bolton Broth media supplemented with 50% bovine heparin plasma, and 5% laked horse blood. From this suspension, 100 μL was used to inoculate the microtiter plate wells prior to static incubation at 37°C for 24 h, 3 days and 5 days. The media in each well was changed daily during prolonged incubation periods (3 and 5 days). […] After incubation with D-Bac8c^2,5 Leu, biofilms were washed twice with PBS and biofilm assessment was performed. For the polymicrobial biofilms, a bacterial solution ratio 1:1 of S. aureus and P. aeruginosa at 1 × 10^5 CFU/mL each was used to inoculate the wells. In each assay, inoculated medium without antimicrobials and uninoculated medium served as growth and sterility controls, respectively. […] Viability of biofilm cells after treatment was measured using resazurin-conversion assay as previously described ([Hogan et al., 2016]) (Sigma-Aldrich, Ireland). […] Fluorescence intensity was detected at excitation of 544 nm and emission of 590 nm using a fluorimeter, Perkin Elmer 2030 Multilabeled Reader, Victor 3X. […] After overnight incubation at 37°C, CFU were counted and results were expressed as log10CFU/mL.

HUVEC = experiment: MTT cell viability; format: cell-based, human; settings: 24 h, 37°C, 5% CO2, average of three independent experiments
human red blood cells = format: cell-based
Procedure: Potential haemolytic activity of the peptide was determined using fresh human erythrocytes from healthy donors based on the method described by [Cantisani et al. (2013)]. Human blood was drawn [ethylenediaminetetraacetic acid (EDTA); 1.6 mg/mL], and red blood cells (RBCs) were separated by centrifugation at 1000 x g for 5 min at 18°C. Upon 3 washes with PBS, the RBCs were further diluted 2-fold (v/v) into PBS. D-Bac8c^2,5 Leu was added to erythrocyte suspension at a final concentration ranging from 3.125 to 200 μg/mL in a final volume of 100 μL. Samples were incubated at 37°C for 24 h. The level of haemolysis was assessed by measuring the absorbance of supernatant at 490 nm. Triton-X-100 was used as a positive control for haemolysis.

[2] = system: pro-inflammatory cytokines; settings: cited from earlier work

`CC(C)C[C@@H](NC(=O)[C@H](N)CCCNC(=N)N)C(=O)N[C@H](Cc1c[nH]c2ccccc12)C(=O)N[C@@H](C(=O)N[C@H](CC(C)C)C(=O)N[C@H](Cc1c[nH]c2ccccc12)C(=O)N[C@H](CCCNC(=N)N)C(=O)N[C@H](CCCNC(=N)N)C(N)=O)C(C)C` [D-Bac8c^2,5 Leu] (H-[dR][dL][dW][dV][dL][dW][dR][dR]-NH2; N-terminus assumed) showed an MIC (BH1CC) of 8 µg/mL (≈ 6.76 µM), an MIC (BH48) of 8 µg/mL (≈ 6.76 µM) and an MIC (SH1000) of 8 µg/mL (≈ 6.76 µM). The MIC (USA300) was 8 µg/mL (≈ 6.76 µM), the “reduction in bacterial load compared to untreated controls” value ([1]; static biofilm assays, summed up in abstract) was 2–3 log and the “minimum concentration needed to inactivate biofilms” value ([1]; static biofilms, 6 h treatment (Figures 1, 2 and Table 3)) was 64 µg/mL. The “IC50 (50% cell viability), MTT” value (HUVEC) was 134 µg/mL (≈ 113 µM), the haemolytic activities (human red blood cells) was “negligible” and the “release of pro-inflammatory cytokines in human blood” value [2] was “did not induce”.
